Results published in ChEMBL document CHEMBL4354832, “Discovery of a Covalent Inhibitor of KRASG12C (AMG 510) for the Treatment of Solid Tumors” (J Med Chem, 2020).
In brackets after ≈: the same amount, converted by molar mass. Activity calls are given as the source filed them. The calls are words filed in the database; no cut-off is given here.

Key:
[1] = Intrinsic clearance in human cryopreserved hepatocytes assessed per 10^6 cells at 0.5 uM measured upto 60 mins by LCMS analysis; assay type: ADME, cell-based, Hepatocyte; details: read-out: CLH
[2] = Solubility of compound in 0.01N HCl at pH 2 incubated for 48 to 72 hrs under shaking conditions by LCMS analysis; assay type: physicochemical
[3] = Permeability of compound across apical to basolateral membrane in MDCK2 cells at 10 to 50 uM incubated for 2 hrs under shaking condition by LC-MS/MS analysis; assay type: ADME, cell-based, Canis lupus familiaris, MDCK-II; details: dog, MDCK; read-out: permeability
[4] = Volume of distribution at steady state in BALB/c mouse at 1 mg/kg, iv or 10 mg/kg, po; assay type: ADME, organism-based; details: in vivo, read-out: Vdss
[5] = Half life in BALB/c mouse at 1 mg/kg, iv or 10 mg/kg, po; assay type: ADME, organism-based; details: in vivo
[6] = Half life of compound at 25 degree C; assay type: physicochemical
MIA PaCa-2 = test: Antiproliferative activity against human MIAPaCa2 cells harboring KRAS G12C point mutant assessed as cell growth inhibition after 72 hrs by Celltiter-Glo luminescent cell viability assay; assay type: functional, cell-based; details: MIA PaCa-2, 72 h
GTPase KRas [7] = target: GTPase KRas (Homo sapiens, UniProt P01116); test: Inhibition of KRAS in human MIAPaca2 cells assessed as decrease in EGF-stimulated ERK1/2 phosphorylation preincubated for 2 hrs followed by EGF stimulation; assay type: cell-based
[8] = Clearance in BALB/c mouse at 1 mg/kg, iv or 10 mg/kg, po; assay type: ADME, organism-based; details: in vivo
[9] = Solubility of compound in PBS buffer at pH 7.4 incubated for 48 to 72 hrs under shaking conditions by LCMS analysis; assay type: physicochemical
[10] = Solubility of compound in FaSSIF incubated for 48 to 72 hrs under shaking conditions by LCMS analysis; assay type: physicochemical
GTPase KRas [11] = target: GTPase KRas (Homo sapiens, UniProt P01116, C118A/G12C); test: Inhibition of GDP bound recombinant human His-tagged KRAS G12C/C118A mutant (1 to 169 residues) assessed as reduction in SOS1-mediated GDP/GTP nucleotide exchange by measuring the disruption between GDP-bound recombinant His-tagged KRAS G12C/C118A (1 to 169 residues) and Ras binding domain of GST-tagged c-RAF (1 to 149 residues) preincubated for 5 mins followed by SOS1 and GTP addition and further incubated for 30 mins by AlphaLISA assay
[12] = Oral bioavailability in BALB/c mouse at 10 mg/kg; assay type: ADME, organism-based; details: in vivo
A549 = test: Antiproliferative activity against human A549 cells harboring KRAS G12S point mutant assessed as cell growth inhibition after 72 hrs by Celltiter-Glo luminescent cell viability assay; assay type: functional, cell-based; details: A549, 72 h
[13] = Intrinsic clearance in mouse cryopreserved hepatocytes assessed per 10^6 cells at 0.5 uM measured upto 60 mins by LCMS analysis; assay type: ADME, cell-based, Hepatocyte; details: read-out: CLH
[14] = Protein binding in BALB/c mouse plasma assessed as unbound fraction by ultracentrifugation; assay type: ADME, cell-free
Mus musculus = test: Decrease in ERK1/ERK2 phosphorylation in human MIAPaCa2 cells xenografted in athymic nude mouse at 10 to 100 mg/kg, po administered as single dose measured after 60 to 120 mins post-treatment; assay type: functional, organism-based
[15] = Ratio of unbound plasma concentration in BALB/c mouse at 10 mg/kg to IC50 for inhibition of KRAS in human MIAPaca2 cells assessed as decrease in EGF-stimulated ERK1/2 phosphorylation preincubated for 2 hrs followed by EGF stimulation; assay type: organism-based; details: in vivo

| SMILES | hepatocyte CLint at 0.5 µM [1] [µL/min/1e6 cells] | solubility thermodynamic [2] [µM] | Papp A→B at 2 h, up to 50 µM [3] [×10⁻⁶ cm/s] | Vd [4] [L/kg] | half-life [5] [min] | t1/2 [6] [h] | IC50 (MIA PaCa-2) [µM] | IC50 (GTPase KRas [7]) [µM] | clearance [8] [mL/min/kg] | solubility thermodynamic [9] [µM] | solubility thermodynamic [10] [µM] | IC50 (GTPase KRas [11]) [µM] | bioavailability [12] [%] | IC50 (A549) [µM] | hepatocyte CLint at 0.5 µM [13] [µL/min/1e6 cells] | fraction unbound [14] | inhibition (Mus musculus) | Ratio [15] |
| --- | --- | --- | --- | --- | --- | --- | --- | --- | --- | --- | --- | --- | --- | --- | --- | --- | --- | --- |
| C=CC(=O)N1CCN(c2nc(=O)n(-c3ccccc3C(C)C)c3nc(-c4c(O)cccc4F)c(Cl)cc23)[C@@H](C)C1 (stereo in doubt; (R)-18) | 38 | 7 (≈ 3.93 µg/mL) | 9 | 0.4 | 78 | 5 | 0.005 | 0.044 | 6.67 | 9 (≈ 5.06 µg/mL) | 184 (≈ 103 µg/mL) | 0.051 | 33 | 14.2 | 119 | – | – | – |
| C=CC(=O)N1CCN(c2nc(=O)n(-c3c(C)cccc3C(C)C)c3nc(-c4c(O)cccc4F)c(Cl)cc23)[C@@H](C)C1 | 30 | 9 (≈ 5.18 µg/mL) | 15 | – | 30 to 54 | – | 0.002 | 0.028 | 23.3 to 45 | 12 (≈ 6.91 µg/mL) | 204 (≈ 118 µg/mL) | – | 4 to 21 | 11.9 | 102 | 0.03 | Active | 4.5 |
| C=CC(=O)N1CCN(c2nc(=O)n(-c3c(C(C)C)ccnc3C)c3nc(-c4c(O)cccc4F)c(F)cc23)[C@@H](C)C1 | 9 | 484 (≈ 271 µg/mL) | 1 | 1.1 | 18 | – | 0.016 | – | 61.7 | 426 (≈ 239 µg/mL) | 477 (≈ 267 µg/mL) | – | 15 | 49.1 | 100 | – | – | – |
| C=CC(=O)N1CCN(c2nc(=O)n(-c3ccccc3C(C)C)c3nc(-c4c(O)cccc4F)c(Cl)cc23)[C@@H](C)C1 (stereo in doubt; (S)-18) | – | – | – | – | – | 190 | – | – | – | – | – | – | – | – | – | – | – | – |
| C=CC(=O)N1CCN(c2nc(=O)n(-c3c(CC)cccc3CC)c3nc(-c4c(O)cccc4F)c(Cl)cc23)[C@@H](C)C1 | – | – | – | – | 30 | – | – | 0.036 | 55 | – | – | 0.068 | 8 | – | – | 0.03 | – | 0.8 |
| C=CC(=O)N1CCN(c2nc(=O)n(-c3c(C4CC4)ncnc3C3CC3)c3nc(-c4c(O)cccc4F)c(Cl)cc23)[C@@H](C)C1 | – | – | – | – | 30 | – | – | 0.036 | 55 | – | – | – | 7 | – | – | 0.08 | – | 0.6 |
| C=CC(=O)N1CCN(c2nc(=O)n(-c3scnc3C(C)C)c3nc(-c4c(O)cccc4F)c(Cl)cc23)[C@@H](C)C1 | – | – | – | – | 66 | – | – | 0.063 | 36.7 | – | – | – | 22 | – | – | 0.02 | – | 1.5 |
| C=CC(=O)N1CCN(c2nc(=O)n(-c3c(C)ncnc3C(C)C)c3nc(-c4c(O)cccc4F)c(Cl)cc23)[C@@H](C)C1 | 5 | 421 (≈ 243 µg/mL) | 1 | 0.4 | 18 | – | 0.003 | – | 58.3 | 499 (≈ 288 µg/mL) | 500 (≈ 289 µg/mL) | – | < 0.5 | > 50 | 139 | – | – | – |
| C=CC(=O)N1CCN(c2nc(=O)n(-c3c(C(C)C)ncnc3C(C)C)c3nc(-c4c(O)cccc4F)c(Cl)cc23)[C@@H](C)C1 | – | – | – | – | 48 | – | – | 0.025 | 38.3 | – | – | 0.021 | 13 | – | – | 0.03 | – | 0.8 |
| C=CC(=O)N1CCN(c2nc(=O)n(-c3c(C)cccc3C(C)C)c3nc(-c4c(O)cccc4F)c(F)cc23)[C@@H](C)C1 | 37 | 24 (≈ 13.4 µg/mL) | 22 | 1.1 | 30 | – | 0.011 | – | 33.3 | 41 (≈ 22.9 µg/mL) | 164 (≈ 91.8 µg/mL) | – | < 0.5 | 11.6 | 111 | – | – | – |
| C=CC(=O)N1CCN(c2nc(=O)n(-c3c(C)ncnc3C(C)C)c3nc(-c4c(O)cccc4F)c(F)cc23)[C@@H](C)C1 | 5 | 500 (≈ 281 µg/mL) | < 1 | 1.7 | 18 | – | 0.009 | – | 78.3 | 495 (≈ 278 µg/mL) | 500 (≈ 281 µg/mL) | – | 10 | > 50 | 65 | – | – | – |
| C=CC(=O)N1CCN(c2nc(=O)n(-c3c(C)ccnc3C(C)C)c3nc(-c4c(O)cccc4F)c(Cl)cc23)[C@@H](C)C1 | 11 | 500 (≈ 289 µg/mL) | 1 | 0.8 | 24 | – | 0.001 | – | 65 | 46 (≈ 26.5 µg/mL) | 381 (≈ 220 µg/mL) | – | < 0.5 | 34.1 | 75 | – | – | – |
| C=CC(=O)N1CCN(c2nc(=O)n(-c3ccccc3C(C)C)c3nc(-c4ccccc4O)c(Cl)cc23)[C@@H](C)C1 | 82 | 57 (≈ 31 µg/mL) | 18 | 0.8 | 30 | – | 0.013 | – | 28.3 | 88 (≈ 47.9 µg/mL) | 299 (≈ 163 µg/mL) | – | 10 | 12.2 | 288 | – | – | – |
